Laboratory results as given in US20260138985A1, “Azepino-Indoles for the Treatment of Neurological and Psychiatric Disorders” (Terran Biosciences Inc., priority 2021, published 2026).

What was measured:
[1] = biological target: T1, 5-HT2C receptor (Homo sapiens, UniProt P28335); assay: Calcium mobilization assay, antagonist format, 5-HT2C receptor; format: cell-based; parameters: dose or concentration left out as unconfirmed
T1 construct: host or cells: unnamed cell lines
T1 sequence (P28335 33-458): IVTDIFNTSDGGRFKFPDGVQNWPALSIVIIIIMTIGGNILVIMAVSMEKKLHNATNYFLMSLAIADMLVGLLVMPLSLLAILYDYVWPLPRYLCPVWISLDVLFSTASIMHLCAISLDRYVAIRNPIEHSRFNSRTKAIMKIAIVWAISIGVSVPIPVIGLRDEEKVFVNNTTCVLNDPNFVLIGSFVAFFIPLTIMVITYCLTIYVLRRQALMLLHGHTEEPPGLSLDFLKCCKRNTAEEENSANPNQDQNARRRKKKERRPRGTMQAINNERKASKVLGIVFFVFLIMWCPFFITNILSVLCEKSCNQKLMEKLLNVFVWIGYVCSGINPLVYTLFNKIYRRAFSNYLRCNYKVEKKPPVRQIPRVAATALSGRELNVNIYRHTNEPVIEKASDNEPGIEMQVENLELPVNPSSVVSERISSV
Description: (§1) Protocol—in vitro testing at select 5-hydroxytryptamine (5-HT; serotonin) receptors was conducted.
(§2) • 1. Cell lines were expanded from freezer stocks according to standard procedures. • 2. Cells were seeded in a total volume of 20 μL into black-walled, clear-bottom, Poly-D-lysine coated 384-well microplates and incubated at 37° C. for the appropriate time prior to testing.
(§3) • 1. Assays were performed in 1×Dye Loading Buffer consisting of 1× Dye, 1× Additive A and 2.5 mM Probenecid in HBSS/20 mM Hepes. Probenicid was prepared fresh. • 2. Cells were loaded with dye prior to testing. Media was aspirated from cells and replaced with 20 μL Dye Loading Buffer. • 3. Cells were incubated for 30-60 minutes at 37° C.
• 1. For antagonist determination, cells were pre-incubated with sample followed by agonist challenge at the EC80 concentration. • 2. Intermediate dilution of sample stocks was performed to generate 3× sample in assay buffer. • 3. After dye loading, cells were removed from the incubator and […] 3× sample was added. Cells were incubated for 30 minutes at room temperature in the dark to equilibrate plate temperature. Vehicle concentration was 1%. • 4. Compound antagonist activity was measured on a FLIPR Tetra (MDS). Calcium mobilization was monitored for 2 minutes and 10 μL EC80 agonist in HBSS/20 mM Hepes was added to the cells 5 seconds into the assay.
(§4) • 1. Compound activity was analyzed using CBIS data analysis suite (ChemInnovation, CA). • 2. For agonist mode assays, percentage activity is calculated using the following formula: % Activity=100%×(mean RFU of test sample−mean RFU of vehicle control)/(mean MAX RFU control ligand −mean RFU of vehicle control). • 3. For positive allosteric mode assays, percentage modulation was calculated using the following formula: % Modulation=100%×((mean RFU of test sample−mean RFU of EC20 control)/(mean RFU of MAX control ligand −mean RFU of EC20 control)). • 4. For antagonist and negative allosteric modulation mode assays, percentage inhibition is calculated using the following formula: % Inhibition=100%×(1−(mean RFU of test sample−mean RFU of vehicle control)/(mean RFU of EC80 control−mean RFU of vehicle control)).
(§5) As discussed above, agonism, or partial agonism, of the 5-HT2A receptor (also known as positive allosteric modulation, or 5-HT2A modulation) is useful for the treatment of neurological and psychiatric disorders. For example, 5-HT2A agonism has been correlated with the promotion of neural plasticity (Ly et al., 2018). Agonism of the 5-HT2B receptor has been associated with unwanted cardiac valvulopathy side-effects, a form of cardio-toxicity (Rothman et al., Circulation. 2000, 102, 2836-2841; Fitzgerald et al., Molecular Pharmacology 2000, 57, 75-81). […] Antagonists of the 5-HT2C receptor are also useful for the treatment of neurological and psychiatric disorders (Kennett et al., Neuropharmacology 1997, 36, 609-620).

[2] = Metabolic stability in human liver microsomes; format: in vitro ADME; conditions: for half-life at 0.2 μM: pH 7.4, half life; for half-life at 0.2 μM / microsomal CLint at 0.2 μM / CLint scaled at 0.2 μM: values marked * average of two experiments; for microsomal CLint at 0.2 μM: pH 7.4, intrinsic clearance, read-out: CLint(mic); for CLint scaled at 0.2 μM: pH 7.4, scaled from CLint(mic); for difference in half-life and intrinsic clearance versus comparator: Compound 163 vs 8-methoxy-1,2,3,4,5,6-hexahydroazepino[4,5-b]indole, Compounds 1, 2 and 3 vs TBG
Description: Microsomal Assay: Human liver microsomes (20 mg/mL) are obtained from Xenotech, LLC (Lenexa, KS). β-nicotinamide adenine dinucleotide phosphate, reduced form (NADPH), magnesium chloride (MgCl2), and dimethyl sulfoxide (DMSO) are purchased from Sigma-Aldrich.
Determination of Metabolic Stability: 7.5 mM stock solutions of test compounds of the above structural formula (e.g., of an embodiment or aspect of embodiment thereof described herein), or pharmaceutically acceptable salt thereof, are prepared in DMSO. […] The diluted microsomes are added to wells of a 96-well deep-well polypropylene plate in triplicate. […] Reactions are initiated by addition of pre-warmed NADPH solution. The final reaction volume is 0.5 mL and contains 4.0 mg/mL human liver microsomes, 0.2 μM test compound, and 2 mM NADPH in 0.1 M potassium phosphate buffer, pH 7.4, and 3 mM MgCl2. The reaction mixtures are incubated at 37° C., and […] aliquots are removed at 0, 5, 10, 20, and 30 minutes and added to shallow-well 96-well plates which contain […] of ice-cold ACN (acetonitrile) with internal standard to stop the reactions. The plates are stored at 4° C. for 20 minutes after which […] of water is added to the wells of the plate before centrifugation to pellet precipitated proteins. Supernatants are transferred to another 96-well plate and analyzed for amounts of parent remaining by LC-MS/MS using an Applied Bio-systems API 4000 mass spectrometer. The same procedure is followed for the non-deuterated counterpart of the compound and the positive control, 7-ethoxycoumarin (1 μM). Testing is done in triplicate.
Data analysis: The in vitro Ti/s for test compounds are calculated from the slopes of the linear regression of % parent remaining (In) vs incubation time relationship.
[formula] • k=−[slope of linear regression of % parent remaining (In) vs incubation time] • The apparent intrinsic clearance is calculated using the following equation: […]
Data analysis is performed using Microsoft Excel Software.

[3] = biological target: T2, 5-HT2B receptor (Homo sapiens, UniProt P41595); assay: Calcium mobilization assay, agonist format, 5-HT2B receptor; format: cell-based; conditions: read-out: 5-HT2B agonist Efficacy @ 5 µM
T2 construct: host or cells: unnamed cell lines
Description: as §1, §2, §3
(§6) • 1. For agonist determination, cells were incubated with sample to induce response. • 2. After dye loading, cells were removed from the incubator and 10 μL HBSS/20 mM Hepes was added. 3× vehicle was included in the buffer when performing agonist dose curves to define • the EC80 for subsequent antagonist assays. Cells were incubated for 30 minutes at room temperature in the dark to equilibrate plate temperature. • 3. Intermediate dilution of sample stocks was performed to generate 4× sample in assay buffer. • 4. Compound agonist activity was measured on a FLIPR Tetra (MDS). Calcium mobilization was monitored for 2 minutes and 10 μL 4× sample in HBSS/20 mM Hepes was added to the cells 5 seconds into the assay.
as §4, §5

[4] = biological target: T3, 5-HT2A receptor (Homo sapiens, UniProt P28223); assay: Calcium mobilization assay, agonist format, 5-HT2A receptor; format: cell-based; conditions: read-out: 5-HT2A agonist Efficacy @ 10 µM
T3 construct: host or cells: unnamed cell lines
Description: as §1, §2, §3, §6, §4, §5

T3 sequence (P28223 whole entry): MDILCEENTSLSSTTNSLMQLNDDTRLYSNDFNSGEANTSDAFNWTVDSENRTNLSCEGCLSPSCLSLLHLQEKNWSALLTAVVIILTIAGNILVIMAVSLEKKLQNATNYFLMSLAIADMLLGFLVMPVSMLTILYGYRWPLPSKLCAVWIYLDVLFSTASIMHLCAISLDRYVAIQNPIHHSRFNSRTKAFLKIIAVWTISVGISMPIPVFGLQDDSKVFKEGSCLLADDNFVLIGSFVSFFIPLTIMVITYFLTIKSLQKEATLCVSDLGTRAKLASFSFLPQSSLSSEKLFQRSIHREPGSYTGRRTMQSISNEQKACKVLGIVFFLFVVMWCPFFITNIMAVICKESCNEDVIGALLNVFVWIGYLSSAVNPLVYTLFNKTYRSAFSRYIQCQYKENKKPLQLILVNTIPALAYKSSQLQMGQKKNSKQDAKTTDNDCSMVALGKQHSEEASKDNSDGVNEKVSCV
T2 sequence (P41595 whole entry): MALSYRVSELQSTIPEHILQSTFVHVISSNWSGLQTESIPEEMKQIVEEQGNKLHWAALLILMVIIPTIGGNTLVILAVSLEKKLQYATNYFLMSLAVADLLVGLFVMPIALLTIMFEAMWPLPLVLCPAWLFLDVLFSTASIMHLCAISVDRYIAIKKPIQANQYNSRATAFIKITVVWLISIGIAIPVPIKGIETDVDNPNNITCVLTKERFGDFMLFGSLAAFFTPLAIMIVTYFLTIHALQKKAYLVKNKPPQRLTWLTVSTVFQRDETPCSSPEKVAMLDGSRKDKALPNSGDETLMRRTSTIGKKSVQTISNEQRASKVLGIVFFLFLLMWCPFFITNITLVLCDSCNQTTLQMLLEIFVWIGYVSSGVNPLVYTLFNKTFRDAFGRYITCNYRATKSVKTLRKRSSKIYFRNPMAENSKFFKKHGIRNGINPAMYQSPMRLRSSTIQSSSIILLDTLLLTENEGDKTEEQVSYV

Row | Compound | inhibition [1] [%] | half-life at 0.2 μM [2] [h] | microsomal CLint at 0.2 μM [2] [µL/min/mg] | CLint scaled at 0.2 μM [2] [mL/min/kg] | activation at 5 µM [3] [%] | activation at 10 µM [4] [%] | difference in half-life and intrinsic clearance versus comparator [2] | intrinsic clearance ratio ([2]; compared with 8-methoxy-1,2,3,4,5,6-hexahydroazepino[4,5-b]indole)
1 | COc1ccc2c3c([nH]c2c1)CCNCC3 [8-methoxy-1,2,3,4,5,6-hexahydroazepino[4,5-b]indole, reference compound] | 98.1 | 1.82 | 12.7 | 11.4 | 0.6 | 85.3 | – | –
2 | [2H]C([2H])([2H])Oc1ccc2c3c([nH]c2c1)CCN(C)CC3 [Compound 1, 3-methyl-8-(trideuteriomethoxy)-2,4,5,6-tetrahydro-1H-azepino[4,5-b]indole] | 95.5 | 1.35 | 17.2 | 15.4 | -8.3 | 30.4 | differences in half-life and intrinsic clearance | –
3 | [2H]C([2H])([2H])N1CCc2[nH]c3cc(OC)ccc3c2CC1 [Compound 2, 8-methoxy-3-(trideuteriomethyl)-2,4,5,6-tetrahydro-1H-azepino[4,5-b]indole] | 94.5 | 1.4 | 16.6 | 14.9 | -0.4 | 38 | differences in half-life and intrinsic clearance | –
4 | [2H]C([2H])([2H])Oc1ccc2c3c([nH]c2c1)CCN(C([2H])([2H])[2H])CC3 [Compound 3, 8-(trideuteriomethoxy)-3-(trideuteriomethyl)-2,4,5,6-tetrahydro-1H-azepino[4,5-b]indole] | 95 | 1.38 | 16.8 | 15.1 | -0.7 | 40 | differences in half-life and intrinsic clearance | –
5 | [2H]C([2H])([2H])Oc1ccc2c3c([nH]c2c1)CCNCC3 [Compound 163, 8-(trideuteriomethoxy)-1,2,3,4,5,6-hexahydroazepino[4,5-b]indole] | 97.7 | 1.44 | 16.1 | 14.5 | -0.2 | 83 | significant difference in half-life | > 1.15
6 | COc1ccc2c3c([nH]c2c1)CCN(C1CC1)CC3 [Compound 164, 3-cyclopropyl-8-methoxy-2,4,5,6-tetrahydro-1H-azepino[4,5-b]indole] | 100 | – | – | – | 2.7 | 61 | – | –
7 | c1cc2c3c([nH]c2cc1OC1CC1)CCN(C1CC1)CC3 [Compound 165, 8-cyclopropoxy-3-cyclopropyl-1,2,3,4,5,6-hexahydroazepino[4,5-b]indole] | 71.7 | – | – | – | 0.9 | -2.7 | – | –
8 | CN1CCc2[nH]c3cc4c(cc3c2CC1)OCC4 [Compound 166, 8-methyl-2,3,5,6,7,8,9,10-octahydroazepino[4,5-b]furo[2,3-f]indole] | 97.9 | – | – | – | 0.3 | 53.5 | – | –
9 | COc1ccc2c3c([nH]c2c1)CCN(C)CC3 [TBG, 8-methoxy-3-methyl-1,2,3,4,5,6-hexahydroazepino[4,5-b]indole, reference compound] | 94.7 | 1.5 | 15.6 | 14 | -0.9 | 38.5 | – | –
